US9315458B2, “Nitrogen-containing heterocyclic compound” (Takeda Pharmaceutical Company Limited, priority 2014, dated 2016)

Assays:
[1] = molecular target: T1, human M1 receptor (hCHRM1) (Homo sapiens, UniProt P11229); test: Measurement of M1 receptor positive allosteric modulator (M1PAM) activity, calcium fluorescence (FLIPRtetra) with acetylcholine at EC20; assay type: cell-based; details: for activity (%) at 10 μM: 10 μM test compound, 100% = acetylcholine 1 μM, 0% = DMSO, acetylcholine at EC20; for EC50: inflection point of concentration-dependent curve, CHO-K1 cells expressing hCHRM1, acetylcholine at EC20 (final 0.6-0.8 nM), read-out: IP value
T1 construct: expressed in transfected cells
T1 sequence (P11229 1-460): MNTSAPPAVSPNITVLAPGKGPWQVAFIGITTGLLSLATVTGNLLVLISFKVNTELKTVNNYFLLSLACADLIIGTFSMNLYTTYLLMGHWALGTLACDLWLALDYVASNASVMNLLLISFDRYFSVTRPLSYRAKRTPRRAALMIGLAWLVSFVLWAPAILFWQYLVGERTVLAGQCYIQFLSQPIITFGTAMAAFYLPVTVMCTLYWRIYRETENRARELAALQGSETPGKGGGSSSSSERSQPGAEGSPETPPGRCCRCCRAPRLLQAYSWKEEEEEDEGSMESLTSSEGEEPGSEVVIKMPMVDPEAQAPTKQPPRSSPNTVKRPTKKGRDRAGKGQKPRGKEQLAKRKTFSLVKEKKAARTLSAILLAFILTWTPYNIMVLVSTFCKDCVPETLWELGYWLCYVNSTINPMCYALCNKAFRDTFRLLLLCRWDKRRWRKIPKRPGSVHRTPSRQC
In short: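 CHO-K1 cells stably expressing hCHRM1, Fluo-4 AM loaded; compound added with acetylcholine at EC20 (final 0.6-0.8 nM), fluorescence read 1 min. Activity normalised to 1 μM acetylcholine (100%) and DMSO (0%); IP values taken as inflection point of the concentration-response curve.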

[2] = tested on: IP1 production in hippocampi; test: Measurement of myo-inositol 1 phosphate (IP1) in hippocampus after oral administration; assay type: in vivo, male Long-Evans rats; details: 10 mg/kg oral, rat hippocampus, IP1/protein ratio, lithium chloride s.c.
Description: Animals used were male Long-Evans rats. They were used after acclimation for at least 1 week. Test compounds were suspended in 0.5% aqueous methylcellulose solution, and the suspension was orally administered to the rats. At a certain period of time after the oral administration, the solution prepared by dissolving lithium chloride in saline was subcutaneously administered into the rats. At a certain period of time after the subcutaneously administration, their bilateral hippocampi were isolated from the rats, and the wet weight thereof was measured. The hippocampi were homogenized with HEPES buffer, followed by centrifugation. The IP1 and protein concentrations in the supernatant were measured by IP-One HTRF assay kit (Cisbio Bioassays) and BCA protein assay kit (Thermo Scientific), respectively. The level of the IP1 production was expressed as the ratio of the concentration of IP1 to that of protein. The increase rate of the IP1 production was shown as a relative value when Vehicle administration group as 100%.

[3] = tested on: Scopolamine-induced memory deficits models; test: Novel object recognition test; assay type: in vivo, male Long-Evans rats; details: scopolamine 0.1 mg/kg s.c., mean±standard error
Method: Novel object recognition test is comprised of two trials called the acquisition and the retention trials. Scopolamine-induced memory deficits models were used for the test, and animals used were male Long-Evans rats (7-week-old). On the day before the test, for acclimation, the rats were allowed to freely move about the test box (40×40×50 cm) for 10 minutes. On the test day, the rats were acclimated to the test room for about 1 hr prior to the test. The test compounds were orally administered to the rats in a single dose 2 hr before the acquisition trial. For induction of learning and memory deficits, scopolamine (0.1 mg/kg) was subcutaneously administered into the rats 30 min before the acquisition trial. For the acquisition trial, two identical objects (A1, A2) were placed in the test box. The rats were put in the test box for 3 min, and the duration exploring each object was measured. The retention trial was performed 4 hr after the acquisition trial. For the retention trial, the familiar object (A3) used for the acquisition trial and the novel object (B) different shape from A3 were placed in the test box. The rats were put in the test box for 3 min. The duration exploring each object in the acquisition trial and the retention trial, and the exploration rate (%) of novel object was calculated. The exploration rate (%) of novel object was expressed as (the duration exploring the novel object)/[(the duration exploring the novel object)+(the duration exploring the familiar object)]×100(%) at mean±standard error.

| activity (%) at 10 μM [1] [%] | EC50 [1] [µM] | SMILES | increase rate at 10 mg/kg (% of Vehicle) [2] | exploration rate (%) of novel object ([3]; 10 mg/kg oral 2 hr before acquisition trial, control 62.37±3.24%, solvent-scopolamine 48.39±2.01%) [%] | exploration rate (%) of novel object ([3]; 3 mg/kg oral 2 hr before acquisition trial, control 63.35±1.59%, solvent-scopolamine 52.08±2.47%) [%] | exploration rate (%) of novel object ([3]; 3 mg/kg oral 2 hr before acquisition trial, control 66.4±2.3%, solvent-scopolamine 50.4±2.4%) [%] |
| --- | --- | --- | --- | --- | --- | --- |
| 90 | 0.01 | Cc1ccc(Cc2cc3c(c(C)c2C)CN([C@H]2CCCC[C@@H]2O)C3=O)cn1 [Example 25, 2-((1S,2S)-2-hydroxycyclohexyl)-4,5-dimethyl-6-((6-methylpyridin-3-yl)methyl)isoindolin-1-one] | 32 % of Vehicle | 57.55±5.03 | – | – |
| 88 | 0.01 | COc1ccc(Cc2cc3c(c(C)c2C)CN([C@H]2COCC[C@@H]2O)C3=O)cc1 [Example 18, 2-[(3S,4S)-4-hydroxytetrahydro-2H-pyran-3-yl]-6-(4-methoxybenzyl)-4,5-dimethyl-2,3-dihydro-1H-isoindol-1-one] | 40 % of Vehicle | – | 59.11±3.87 | – |
| 109 | 0.0055 | Cc1c(Cc2ccc(-n3cccn3)cc2)cc2c(c1F)CN([C@H]1COCC[C@@H]1O)C2=O [Example 20, 4-fluoro-2-[(3S,4S)-4-hydroxytetrahydro-2H-pyran-3-yl]-5-methyl-6-[4-(1H-pyrazol-1-yl)benzyl]-2,3-dihydro-1H-isoindol-1-one] | 108 % of Vehicle | – | – | 61.2±3.1 |
